From PubChem BioAssay AID256 (DTP/NCI, 2004)
Where “and” joins values, the source holds several entries; their conditions need not be identical. Equal values may be shown once. Inconclusive results and toxic doses are left out.

Tested on: CD2F1 mice, L1210 leukemia ip, survival T/C
Assay: NCI In Vivo Anticancer Drug Screen. Data for tumor model L1210 Leukemia (intraperitoneal) in CD2F1 (CDF1) mice
Conditions: higher = longer survival
Method in brief: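 Read-out first: treated-group measurement over vehicle-control measurement, expressed as a ratio. Animals bore a transplanted tumor line and were dosed with compound or vehicle.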

[1] = endpoint: mean survival time, dose: 12.5 mg/kg/injection, schedule: Q01DX009 (ip), vehicle: Klucel (hydroxypropylcellulose) (HPC)
[2] = endpoint: mean survival time, dose: 50.0 mg/kg/injection, schedule: Q01DX009 (ip), vehicle: Klucel (hydroxypropylcellulose) (HPC)
[3] = endpoint: mean survival time, dose: 100.0 mg/kg/injection, schedule: Q01DX009 (ip), vehicle: Klucel (hydroxypropylcellulose) (HPC)
[4] = endpoint: mean survival time, dose: 200.0 mg/kg/injection, schedule: Q01DX009 (ip), vehicle: Klucel (hydroxypropylcellulose) (HPC)
[5] = endpoint: mean survival time, dose: 100.0 mg/kg/injection, schedule: Q01DX009 (ip), vehicle: saline with Tween-80
[6] = endpoint: mean survival time, dose: 100.0 mg/kg/injection, schedule: Q04DX003 (ip), vehicle: saline with Tween-80
[7] = endpoint: mean survival time, dose: 200.0 mg/kg/injection, schedule: Q04DX003 (ip), vehicle: saline with Tween-80
[8] = endpoint: mean survival time, dose: 400.0 mg/kg/injection, schedule: Q04DX003 (ip), vehicle: saline with Tween-80

With `Cc1noc(N)c1N` the T/C (endpoint: median survival time, dose: 12.5 mg/kg/injection, schedule: Q01DX009 (ip), vehicle: water) was 98 % of control, the T/C (endpoint: median survival time, dose: 25.0 mg/kg/injection, schedule: Q01DX009 (ip), vehicle: water) was 100 % of control and the T/C (endpoint: median survival time, dose: 50.0 mg/kg/injection, schedule: Q01DX009 (ip), vehicle: water) was 100 % of control. The T/C (endpoint: median survival time, dose: 100.0 mg/kg/injection, schedule: Q01DX009 (ip), vehicle: water) was 113 % of control and 104 % of control and 110 % of control and the T/C (endpoint: median survival time, dose: 150.0 mg/kg/injection, schedule: Q01DX009 (ip), vehicle: water) was 109 % of control.

With `CC1CN=C(c2ccc(NC(=O)c3ccc(C(=O)Nc4ccc(C5=NCC(C)N5)cc4)cc3)cc2)N1` (centres undefined) the T/C [1] was 212 % of control, the T/C (endpoint: mean survival time, dose: 25.0 mg/kg/injection, schedule: Q01DX009 (ip), vehicle: Klucel (hydroxypropylcellulose) (HPC)) was 269 % of control and the T/C [2] was 290 % of control. The T/C [3] was 305 % of control, the T/C [4] was 333 % of control and the T/C (endpoint: mean survival time, dose: 400.0 mg/kg/injection, schedule: Q01DX009 (ip), vehicle: Klucel (hydroxypropylcellulose) (HPC)) was 288 % of control.

With `Cc1ccc([N+](=O)[O-])cc1NC(=O)Nc1ccon1` the T/C [2] was 108 % of control, the T/C [3] was 96 % of control and the T/C [4] was 98 % of control.

`O=P(O)(c1ccccc1Br)c1ccccc1Br` was tested, and the T/C (endpoint: mean survival time, dose: 50.0 mg/kg/injection, schedule: Q04DX003 (ip), vehicle: saline) was 101 % of control, the T/C (endpoint: mean survival time, dose: 100.0 mg/kg/injection, schedule: Q04DX003 (ip), vehicle: saline) was 97 % of control and the T/C (endpoint: mean survival time, dose: 200.0 mg/kg/injection, schedule: Q04DX003 (ip), vehicle: saline) was 94 % of control.

For `O=C1C(Cl)=C(Cl)C(=O)C(Cl)=C1Cl`, the T/C (endpoint: mean survival time, dose: 25.0 mg/kg/injection, schedule: Q01DX009 (ip), vehicle: saline with Tween-80) was 101 % of control, the T/C (endpoint: mean survival time, dose: 50.0 mg/kg/injection, schedule: Q01DX009 (ip), vehicle: saline with Tween-80) was 102 % of control and the T/C [5] was 98 % of control.

With `CC12CCCCC1CCC(Br)C2=O` (centres undefined) the T/C [6] was 102 % of control, the T/C [7] was 100 % of control and the T/C [8] was 102 % of control.

`CC(N)CC(C)N` (centres undefined) was tested, and the T/C (endpoint: mean survival time, dose: 100.0 mg/kg/injection, schedule: Q04DX002 (ip), vehicle: saline) was 105 % of control and the T/C (endpoint: mean survival time, dose: 200.0 mg/kg/injection, schedule: Q04DX002 (ip), vehicle: saline) was 109 % of control.

With `Nc1ccc(S(=O)(=O)S(=O)(=O)c2ccc(N)cc2)cc1` the T/C (endpoint: mean survival time, dose: 100.0 mg/kg/injection, schedule: Q01DX001 (ip), vehicle: saline with Tween-80) was 93 % of control and the T/C (endpoint: mean survival time, dose: 200.0 mg/kg/injection, schedule: Q01DX001 (ip), vehicle: saline with Tween-80) was 97 % of control.

In the case of `CNC1CCCCC1[N+](C)(C)C` (centres undefined), the T/C (endpoint: mean survival time, dose: 5.0 mg/kg/injection, schedule: Q01DX009 (ip), vehicle: saline) is reported as 98 % of control, the T/C (endpoint: mean survival time, dose: 5.0 mg/kg/injection, schedule: Q04DX003 (ip), vehicle: saline) is reported as 103 % of control and the T/C (endpoint: mean survival time, dose: 10.0 mg/kg/injection, schedule: Q01DX009 (ip), vehicle: saline) is reported as 101 % of control. For the same compound, the T/C (endpoint: mean survival time, dose: 10.0 mg/kg/injection, schedule: Q04DX003 (ip), vehicle: saline) was 101 % of control, the T/C (endpoint: mean survival time, dose: 20.0 mg/kg/injection, schedule: Q01DX009 (ip), vehicle: saline) was 96 % of control and the T/C (endpoint: mean survival time, dose: 20.0 mg/kg/injection, schedule: Q04DX003 (ip), vehicle: saline) was 98 % of control.

`C/C(=N/O)c1cccc([N+](=O)[O-])c1` was tested, and the T/C [5] was 95 % of control, the T/C [6] was 104 % of control and the T/C (endpoint: mean survival time, dose: 200.0 mg/kg/injection, schedule: Q01DX009 (ip), vehicle: saline with Tween-80) was 98 % of control. The T/C [7] was 95 % of control and the T/C [8] was 103 % of control.

With `CC1(C)CN(c2ccccc2)N(CN2CCOCC2)C1=O` the T/C [1] was 89 % of control.

For `CCOC(=O)C1(C(=O)OCC)CCC(O)N1C(=O)Cc1ccccc1[N+](=O)[O-]` (centres undefined), the T/C [3] was 101 % of control and the T/C [4] was 97 % of control.

For `Cc1ccccc1NC(=O)Oc1c(C)cccc1C`, the T/C (endpoint: mean survival time, dose: 100.0 mg/kg/injection, schedule: Q04DX002 (ip), vehicle: saline with Tween-80) was 97 % of control, the T/C (endpoint: mean survival time, dose: 200.0 mg/kg/injection, schedule: Q04DX002 (ip), vehicle: saline with Tween-80) was 101 % of control and the T/C (endpoint: mean survival time, dose: 400.0 mg/kg/injection, schedule: Q04DX002 (ip), vehicle: saline with Tween-80) was 101 % of control.
